In patent US20130090364A1, “ANALOGUES FOR THE TREATMENT OR PREVENTION OF FLAVIVIRUS INFECTIONS” (priority 2010, published 2013):

The compounds below were run on HCV (1b) RNA replication (replicon I389Luc-ubi-neo/NS3-3′/5.1) (assay: Cell-based luciferase reporter HCV (1b) RNA replication assay, Huh-ET cells). Conditions: Hepatitis C virus; Table 2A; HCV genotype 1b replicon.
Excerpt: Cell-Based Luciferase Reporter HCV (Ib) RNA Replication Assay Cell Culture
Replicon cell lines Huh-5.2 are derived from the Huh-7 hepatocarcinoma cell line are maintained in culture as generally described in Krieger, N; Lohmann, V; Bartenschlager, R. Enhancement of hepatitis C virus RNA replication by cell culture-adaptive mutations. J. Virol. 2001, 75, 4614-4624. The Huh-5.2 cells contain the highly cell culture-adapted replicon I389Luc-ubi-neo/NS3-3′/5.1 construct that carries, in addition to the neomycin gene, an integrated copy to the firefly luciferase gene (Krieger, N; Lohmann, V; Bartenschlager, R. Enhancement of hepatitis C virus RNA replication by cell culture-adaptive mutations. J. Virol. 2001, 75, 4614-4624). This cell line allows measurement of HCV RNA replication and translation by measuring luciferase activity. It has been previously shown that the luciferase activity tightly follows the replicon RNA level in these cells (Krieger, N; Lohmann, V; Bartenschlager, R. Enhancement of hepatitis C virus RNA replication by cell culture-adaptive mutations. J. Virol. 2001, 75, 4614-4624). The Huh-ET cell line has the same features as those mentioned for Huh-5.2 cell line, except that ET cells are more robust and contain an adaptative mutation in the HCV NS4B gene instead of NSSA. Both cell lines are maintained in cultures at a sub-confluent level (<85%) as the level of replicon RNA is highest in actively proliferating cells. The culture media used for cell passaging consist of DMEM (Gibco BRL Laboratories, Mississauga, ON, Canada) supplemented with 10% foetal bovine serum with 1% penicilin/streptomycin, 1% glutamine, 1% sodium pyruvate, 1% non-essential amino acids, and 180 μg/ml of G418 final concentration. Cells are incubated at 37° C., in an atmosphere of 5% CO2 and passaged twice a week to maintain sub-confluence.
Approximately 3000 viable Huh-ET cells (100 μl) are plated per well in a white opaque 96-well microtiter plate. The cell culture media used for the assay is the same as described above except that it contains no G418 and no phenol red. After an incubation period of 3-4 hours at 37° C. in a 5% CO2 incubator, compounds (100 μl) are added at various concentrations. Cells are then further incubated for 4 days at 37° C. in a 5% CO2 incubator. Thereafter, the culture media is removed and cells are lysed by the addition of 95 μL of the luciferase buffer (luciferin substrate in buffered detergent). Cell lysates are incubated at room temperature and protected from direct light for at least 10 minutes. Plates are read for luciferase counts using a luminometer (Wallac MicroBeta Trilux, Perkin Elmer™, MA, USA).
Curves are fitted to data points using nonlinear regression analysis, and IC50s are interpolated from the resulting curve using GraphPad Prism software, version 2.0 (GraphPad Software Inc., San Diego, Calif., USA).
Compound `COC(=O)N[C@H](C(=O)N1CCCC1c1nc2cc(C#Cc3cc4[nH]c([C@@H]5CCCN5C(=O)[C@@H](NC(=O)OC)C(C)C)nc4s3)ccc2[nH]1)C(C)C` (stereo partly shown) [Compound 1] has an EC50 of at most 5 nM.
`COC(=O)N[C@H](C(=O)N1CCC[C@H]1c1nc2sc(C#CC#Cc3cc4[nH]c([C@@H]5CCCN5C(=O)[C@@H](NC(=O)OC)C(C)C)nc4s3)cc2[nH]1)C(C)C` [Compound 2] was tested, and the EC50 was at most 5 nM.
In the case of `COC(=O)N[C@H](C(=O)N1C[C@@H](C)C[C@H]1c1nc2cc(C#Cc3cc4[nH]c([C@@H]5C[C@H](C)CN5C(=O)[C@@H](NC(=O)OC)C(C)C)nc4s3)ccc2[nH]1)C(C)C` [Compound 3], the EC50 is reported as at most 5 nM.
With `COC(=O)N[C@H](C(=O)N1C[C@@H](C)C[C@H]1c1nc2sc(C#CC#Cc3cc4[nH]c([C@@H]5C[C@H](C)CN5C(=O)[C@@H](NC(=O)OC)C(C)C)nc4s3)cc2[nH]1)C(C)C` [Compound 4, dimethyl (2S,2′S)-1,1′-((3S,3′S,5S,5′S)-5,5′-(5,5′-(buta-1,3-diyne-1,4-diyl)bis(1H-thieno[2,3-d]imidazole-5,2-diyl))bis(3-methylpyrrolidine-5,1-diyl))bis(3-methyl-1-oxobutane-2,1-diyl)dicarbamate] the EC50 was at most 5 nM.
Work on `COC(=O)N(C)[C@H](C(=O)N1C[C@@H](C)C[C@H]1c1nc2sc(C#CC#Cc3cc4[nH]c([C@@H]5C[C@H](C)CN5C(=O)[C@H](C(C)C)N(C)C(=O)OC)nc4s3)cc2[nH]1)C(C)C` [Compound 5] yielded an EC50 of at most 5 nM.
`COC(=O)N[C@H](C(=O)N1C[C@@H](C)C[C@H]1c1nc2sc(-c3ccc(-c4ccc5[nH]c([C@@H]6CC[C@H](C)N6C(=O)[C@@H](NC(=O)OC)C(C)C)nc5c4)cc3)cc2[nH]1)C(C)C` [Compound 7] showed an EC50 of at most 5 nM.
For `COC(=O)N[C@H](C(=O)N1C[C@@H](C)C[C@H]1c1nc2sc(-c3ccc(-c4ccc5nc([C@@H]6CC[C@H](C)N6C(=O)[C@@H](NC(=O)OC)C(C)C)oc5c4)cc3)cc2[nH]1)C(C)C` [Compound 8], the EC50 was at most 5 nM.
Compound `COC(=O)N[C@H](C(=O)N1C[C@@H](C)C[C@H]1c1nc2sc(-c3ccc(-c4ccc5nc([C@@H]6C[C@H](C)CN6C(=O)[C@@H](NC(=O)OC)C(C)C)n(C)c5c4)cc3)cc2[nH]1)C(C)C` [Compound 9] has an EC50 of at most 5 nM.
In the case of `COC(=O)N[C@H](C(=O)N1C[C@@H](C)C[C@H]1c1cc2ccc(-c3ccc(-c4cc5[nH]c([C@@H]6C[C@H](C)CN6C(=O)[C@@H](NC(=O)OC)C(C)C)nc5s4)cc3)cc2[nH]1)C(C)C` [Compound 10], the EC50 is reported as at most 5 nM.
`COC(=O)N[C@H](C(=O)N1C[C@@H](C)C[C@H]1c1ncc(-c2ccc(-c3ccc(-c4cc5[nH]c([C@@H]6C[C@H](C)CN6C(=O)[C@@H](NC(=O)OC)C(C)C)nc5s4)cc3)cc2)[nH]1)C(C)C` [Compound 11] gave an EC50 of at most 5 nM.
With `COC(=O)N[C@H](C(=O)N1C[C@@H](C)C[C@H]1c1ncc(C#Cc2ccc(-c3cc4[nH]c([C@@H]5C[C@H](C)CN5C(=O)[C@@H](NC(=O)OC)C(C)C)nc4s3)cc2)[nH]1)C(C)C` [Compound 12] the EC50 was at most 5 nM.
`COC(=O)N[C@H](C(=O)N1C[C@@H](C)C[C@H]1c1nc2cc(-c3ccc(-c4cc5[nH]c([C@@H]6C[C@H](C)CN6C(=O)[C@@H](NC(=O)OC)C(C)C)nc5s4)cc3)ccc2[nH]1)C(C)C` [Compound 13] showed an EC50 of at most 5 nM.
`COC(=O)N[C@H](C(=O)N1C[C@@H](C)C[C@H]1c1nc2cc(C#Cc3ccc(-c4cc5[nH]c([C@@H]6C[C@H](C)CN6C(=O)[C@@H](NC(=O)OC)C(C)C)nc5s4)cc3)ccc2[nH]1)C(C)C` [Compound 14] gave an EC50 of at most 5 nM.
Work on `COC(=O)N[C@H](C(=O)N1C[C@@H](C)C[C@H]1c1ncc(C#Cc2ccc(-c3ccc(-c4cc5[nH]c([C@@H]6C[C@H](C)CN6C(=O)[C@@H](NC(=O)OC)C(C)C)nc5s4)cc3)cc2)[nH]1)C(C)C` [Compound 15] yielded an EC50 of at most 5 nM.
With `COC(=O)N[C@H](C(=O)N1C[C@@H](C)C[C@H]1c1nc(-c2cc3sccc3s2)c(-c2ccc(-c3cc4nc([C@@H]5C[C@H](C)CN5C(=O)[C@@H](NC(=O)OC)C(C)C)[nH]c4s3)cc2)[nH]1)C(C)C` [Compound 16] the EC50 was at most 5 nM.
With `COC(=O)N[C@H](C(=O)N1C[C@@H](C)C[C@H]1c1nc2cc(/C=C/c3ccc(-c4cc5[nH]c([C@@H]6C[C@H](C)CN6C(=O)[C@@H](NC(=O)OC)C(C)C)nc5s4)cc3)ccc2[nH]1)C(C)C` [Compound 17] the EC50 was at most 5 nM.
In the case of `C[C@H]1C[C@@H](c2nc3cc(-c4ccc(-c5ccc(-c6cc7[nH]c([C@@H]8C[C@H](C)CN8C(=O)OC(C)(C)C)nc7s6)cc5)s4)ccc3[nH]2)N(C(=O)OC(C)(C)C)C1` [Compound 18], the EC50 is reported as 5 to 5000 nM.

Same assay, conditions: Hepatitis C virus; Table 2B; HCV genotype 1b replicon
For `COC(=O)N[C@H](C(=O)N1C[C@@H](C)C[C@H]1c1nc(Cl)c(-c2ccc(-c3ccc(-c4cc5nc([C@@H]6C[C@H](C)CN6C(=O)[C@@H](NC(=O)OC)C(C)C)[nH]c5s4)cc3)cc2)[nH]1)C(C)C` [Compound 1a], the EC50 was at most 5 nM.
`COC(=O)N[C@H](C(=O)N1C[C@@H](C)C[C@H]1c1nc(Cl)c(-c2ccc(-c3ccc(-c4sc5[nH]c([C@@H]6C[C@H](C)CN6C(=O)[C@@H](NC(=O)OC)C(C)C)nc5c4Cl)cc3)cc2)[nH]1)C(C)C` [Compound 2a] was tested, and the EC50 was at most 5 nM.
`COC(=O)N[C@H](C(=O)N1C[C@@H](C)C[C@H]1c1nc(I)c(-c2ccc(-c3ccc(-c4cc5nc([C@@H]6C[C@H](C)CN6C(=O)[C@@H](NC(=O)OC)C(C)C)[nH]c5s4)cc3)cc2)[nH]1)C(C)C` [Compound 3a] gave an EC50 of at most 5 nM.
With `C[C@H]1C[C@@H](c2ncc(-c3ccc(-c4ccc(-c5cc6[nH]c([C@@H]7C[C@H](C)CN7C(=O)OC(C)(C)C)nc6s5)cc4)c(F)c3)[nH]2)N(C(=O)OC(C)(C)C)C1` [Compound 4a] the EC50 was at most 5 nM.
In the case of `COC(=O)N[C@H](C(=O)N1C[C@@H](C)C[C@@H]1c1nc2cc(-c3ccc(-c4ccc(-c5c[nH]c([C@@H]6C[C@H](C)CN6C(=O)[C@@H](NC(=O)OC)C(C)C)n5)cc4)cc3C)sc2[nH]1)C(C)C` [Compound 5a], the EC50 is reported as at most 5 nM.
`COC(=O)N[C@H](C(=O)N1C[C@@H](C)C[C@H]1c1nc(-c2ccc(-c3ccc(-c4cc5[nH]c([C@@H]6C[C@H](C)CN6C(=O)[C@@H](NC(=O)OC)C(C)C)nc5s4)cc3F)cc2)c[nH]1)C(C)C` [Compound 6a] gave an EC50 of at most 5 nM.
Compound `COC(=O)N[C@H](C(=O)N1C[C@@H](C)C[C@H]1c1nc(-c2ccc(-c3ccc(-c4cc5[nH]c([C@@H]6C[C@H](C)CN6C(=O)[C@@H](NC(=O)OC)C(C)C)nc5s4)c(F)c3)cc2)c[nH]1)C(C)C` [Compound 7a] has an EC50 of at most 5 nM.
Work on `COC(=O)N[C@H](C(=O)N1C[C@@H](C)C[C@H]1c1nc(-c2ccc(-c3ccc(-c4cc5[nH]c([C@@H]6C[C@H](C)CN6C(=O)[C@@H](NC(=O)OC)C(C)C)nc5s4)cc3C)cc2)c[nH]1)C(C)C` [Compound 8a] yielded an EC50 of at most 5 nM.
Compound `COC(=O)N[C@H](C(=O)N1C[C@@H](C)C[C@H]1c1ncc(-c2ccc(-c3ccc(-c4cc5[nH]c([C@@H]6C[C@H](C)CN6C(=O)[C@@H](NC(=O)OC)C(C)C)nc5s4)cc3)c(F)c2)[nH]1)C(C)C` [Compound 9a] has an EC50 of at most 5 nM.
`COC(=O)N[C@H](C(=O)N1C[C@@H](C)C[C@H]1c1ncc(-c2ccc(-c3ccc(-c4cc5[nH]c([C@@H]6C[C@H](C)CN6C(=O)[C@@H](NC(=O)OC)C(C)C)nc5s4)cc3)cc2F)[nH]1)C(C)C` [Compound 10a] was tested, and the EC50 was at most 5 nM.
For `COC(=O)N[C@H](C(=O)N1C[C@@H](C)C[C@H]1c1ncc(-c2ccc(-c3ccc(-c4cc5[nH]c([C@@H]6C[C@H](C)CN6C(=O)[C@@H](NC(=O)OC)C(C)C)nc5s4)cc3)c(C)c2)[nH]1)C(C)C` [Compound 12a], the EC50 was at most 5 nM.
